Measured values taken from US7087757B2, “Phenyl-substituted imidazopyridines” (Ortho-McNeil Pharmaceutical, Inc., priority 2000, dated 2006).
pKi: −log10 of the molar value.

Target: T1, human histamine H3 receptor (Homo sapiens, UniProt Q9Y5N1)
T1 construct: One microgram supercoiled H3 receptor cDNA was added to the cells and mixed; expressed in transfected cells; membranes prepared from cell pellets
Experiment: [3H]-N-methylhistamine binding
Details: membranes of histamine H3 receptor-expressing SK-N-MC cells; 0.8 nM [3H]-N-methylhistamine; 45 minutes at 25° C.; Ki calculated with KD of 800 pM
Protocol: Screening using the human receptor is particularly important for the identification of new therapies for the treatment of human disease.
A 10 cm tissue culture dish with a confluent monolayer of SK-N-MC cells was split two days prior to transfection. Using sterile technique the media was removed and the cells were detached from the dish by the addition of trypsin. One fifth of the cells were then placed onto a new 10 cm dish. Cells were grown in a 37° C. incubator with 5% CO2 in Minimal Essential Media Eagle with 10% Fetal Bovine Serum. After two days cells were approximately 80% confluent. These were removed from the dish with trypsin and pelleted in a clinical centrifuge. […] One microgram supercoiled H3 receptor cDNA was added to the cells and mixed. The voltage for the electroporation was set at 0.25 kV, the capacitance is set at 960 μF.
After electroporation the cells were diluted into 10 mL complete media and plated onto four 10 cm dishes. Due to the variability in the efficiency of electroporation, four different concentrations of cells were plated. The ratios used were: 1:20, 1:10, and 1:5, with the remainder of the cells being added to the fourth dish. The cells were allowed to recover for 24 hours before adding the selection media (complete media with 600 μg/ml G418). After 10 days dishes were analyzed for surviving colonies of cells. Dishes with well-isolated colonies were used. Cells from individual colonies were isolated and tested. SK-N-MC cells were used because they give efficient coupling for inhibition of adenylate cyclase. The clones that gave the most robust inhibition of adenylate cyclase in response to histamine were used for further study.
Cell pellets from histamine H3 receptor-expressing SK-N-MC cells were homogenized in 20 mM Tris HCl/0.5 mM EDTA. Supernatants from a 800 g spin were collected, reccentrifuged at 30,000 g for 30 minutes. Pellets were rehomogenized in 50 mM Tris/5 mM EDTA (pH 7.4). Membranes were incubated with 0.8 nM [^3H]-N-methylhistamine plus/minus test compounds for 45 minutes at 25° C. and harvested by rapid filtration over GF/C glass fiber filters (pretreated with 0.3% polyethylenimine) followed by four washes with ice cold buffer. Filters were dried, added to 4 mL scintillation cocktail and then counted on a liquid scintillation counter.

T1 sequence (Q9Y5N1 whole entry): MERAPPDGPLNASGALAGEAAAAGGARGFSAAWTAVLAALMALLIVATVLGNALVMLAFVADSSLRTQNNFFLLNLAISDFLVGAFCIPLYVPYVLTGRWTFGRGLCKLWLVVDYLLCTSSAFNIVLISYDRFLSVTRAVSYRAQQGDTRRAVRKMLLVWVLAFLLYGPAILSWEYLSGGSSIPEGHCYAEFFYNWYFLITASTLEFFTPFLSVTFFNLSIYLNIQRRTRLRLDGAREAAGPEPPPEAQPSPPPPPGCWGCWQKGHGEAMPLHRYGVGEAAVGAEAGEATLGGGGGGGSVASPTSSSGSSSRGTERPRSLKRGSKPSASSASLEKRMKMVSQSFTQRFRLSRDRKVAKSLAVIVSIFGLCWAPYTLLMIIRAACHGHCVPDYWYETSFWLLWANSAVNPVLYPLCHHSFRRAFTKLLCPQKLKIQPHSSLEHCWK

Compound	pKi
Cc1ccn2cc(-c3ccc(C#CCCN4CCCC4)cc3)nc2c1 [Example 34, 2-[4-[4-Pyrrolidinobut-1-ynyl]phenyl]-7-methylimidazo[1,2-a]pyridine]	8.52
CCCNCC(O)COc1ccc(-c2cn3cccc(C)c3n2)cc1 (stereo not drawn) [Example 46, 2-[4-(2-hydroxy-3-propylaminopropoxy)phenyl]-8-methylimidazo[1,2-a]pyridine]	6.00
Cc1cccn2cc(-c3ccc(OCCCN4CCOCC4)cc3)nc12 [Example 55, 2-(4-Morpholinopropoxyphenyl)-8-methylimidazo[1,2-a]pyridine]	7.60
Cc1cccn2cc(-c3ccc(NCCN4CCCC4)cc3)nc12 [Example 32, [4-(8-Methyl-imidazo[1,2-a]pyridin-2-yl)-phenyl]-(2-pyrrolidin-1-yl-ethyl)-amine]	8.15
Cc1cccn2cc(-c3ccc(NCCCN4CCCCC4)cc3)nc12 [Example 27, 2-[4-[3-(Piperidino)propylamino]phenyl]-8-methylimidazo[1,2-a]pyridine]	8.15
Cc1ccn2cc(-c3ccc(C=CCCN4CCCCC4)cc3)nc2c1 (mixture of isomers) [Example 36, (E/Z)-2-[4-[4-Piperidinobut-1-enyl]phenyl]-7-methylimidazo[1,2-a]pyridine]	7.96
Cc1ccn2cc(-c3ccc(CCCCN4CCCCCC4)cc3)nc2c1 [Example 39, 2-[4-(4-Azepan-1-yl-butyl)-phenyl]-7-methyl-imidazo[1,2-a]pyridine]	7.24
Cc1ccn2cc(-c3ccc(CCCCN4CCCCC4)cc3)nc2c1 [Example 38, 7-Methyl-2-[4-(4-piperdin-1-yl-butyl)-phenyl]imidazo[1,2-a]pyridine]	7.54
CCN(CC)CCC(=O)Nc1ccc(-c2cn3cccc(C)c3n2)cc1 [Example 6, 3-Diethylamino-N-[4-(8-methyl-imidazo[1,2-a]pyridin-2-yl)-phenyl]-propionamide]	7.26
COc1cc(-c2cn3ccc(C)cc3n2)ccc1OCCCN1CCCC1 [Example 13, 2-[3-Methoxy-4-(3-pyrrolidin-1-yl-propoxy)-phenyl]-7-methyl-imidazo[1,2-a]pyridine]	7.20
CCCN(CCC)CC(C)COc1ccc(-c2cn3cccc(C)c3n2)cc1 (stereo not drawn) [Example 5, {2-Methyl-3-[4-(8-methyl-imidazo[1,2-a]pyridin-2-yl)-phenoxy]-propyl}-dipropyl-amine]	7.30
CCN(CC)CCCNc1ccc(-c2cn3ccc(C)cc3n2)cc1 [Example 30, N,N-Diethyl-N′-[4-(7-methyl-imidazo[1,2-a]pyridin-2-yl)-phenyl]-propane-1,3-diamine]	8.52
CCCCN(CCCC)CC(O)COc1ccc(-c2cn3cccc(C)c3n2)cc1 (stereo not drawn) [Example 48, 2-(4-Dibutylamino(2-hydroxy)propoxyphenyl)-8-methylimidazo[1,2-a]pyridine]	6.00
Cc1ccn2cc(-c3cccc(OCCCN4CCCCC4)c3)nc2c1 [Example 15, 7-Methyl-2-[3-(3-piperidin-1-yl-propoxy)-phenyl]-imidazo[1,2-a]pyridine]	7.55
Cc1cccn2cc(-c3ccc(OCCCNC(C)c4ccccc4)cc3)nc12 (stereo not drawn) [Example 42, 2-(4-alpha-Methylbenzylaminopropoxyphenyl)-8-methylimidazo[1,2-a]pyridine]	6.00
CCN(CC)CCNc1ccc(-c2cn3cccc(C)c3n2)cc1 [Example 7, N,N-Diethyl-N′-[4-(8-methyl-imidazo[1,2-a]pyridin-2-yl)-phenyl]-ethane-1,2-diamine]	8.40
Cc1cccn2cc(-c3ccc(OCC(O)CN4CCN(Cc5ccccc5)CC4)cc3)nc12 (stereo not drawn) [Example 51, 2-[4-[2-Hydroxy-3-(4-benzylpiperazino)propoxy]phenyl]-8-methylimidazo[1,2-a]pyridine]	5.30
Cc1cccn2cc(-c3ccc(C(=O)OCCN(C)C)cc3)nc12 [Example 2, 4-(8-Methyl-imidazo[1,2-a]pyridin-2-yl)-benzoic acid 2-dimethylamino-ethyl ester]	7.05
COc1cc(-c2cn3ccc(C)cc3n2)ccc1OCCCN1CCCCC1 [Example 26, 2-(4-Piperidinopropoxy-3-methoxyphenyl)-7-methylimidazo[1,2-a]pyridine]	6.80
Cc1ccn2cc(-c3ccc(/C=C/CCN4CCCC4)cc3)nc2c1 [Example 40, 7-Methyl-2-[4-(4-pyrrolidin-1-yl-but-1-enyl)-phenyl]imidazo[1,2-a]pyridine]	7.77
Cc1ccn2cc(-c3ccc(OCCCN4CCCCCC4)cc3)nc2c1 [Example 19]	8.70

Compound	pKi
Cc1ccn2cc(-c3ccc(CCCCN4CCCC4)cc3)nc2c1 [Example 37, 2-[4-[4-Pyrrolidinobutyl]phenyl]-7-methylimidazo[1,2-a]pyridine]	8.00
c1cc(-c2cn3c(n2)CCCC3)ccc1OCCCN1CCCCC1 [Example 16, 2-[4-(3-Piperidin-1-yl-propoxy)-phenyl]-5,6,7,8-tetrahydro-imidazo[1,2-a]pyridine]	9.12
c1ccn2cc(-c3ccc(OCCCN4CCCCC4)cc3)nc2c1 [Example 52, 2-[4-(3-Piperidin-1-yl-propoxy)-phenyl]-imidazo[1,2-a]pyridine]	8.30
Cc1cc(-c2cn3ccccc3n2)ccc1OCCC1CCCN1C (stereo not drawn) [Example 11, 2-[4-[2-(1-Methyl)-2-pyrrolidino]ethoxy-3-methylphenyl]imidazo[1,2-a]pyridine]	8.15
Cc1ccn2cc(-c3ccc(OCCCN4CCC(N5CCCCC5)CC4)cc3C)nc2c1 [Example 23, 2-(4-(4-Piperidino)piperidinopropoxy-2-methylphenyl)-7-methylimidazo[1,2-a]pyridine]	7.85
COc1cc(-c2cn3ccc(C)cc3n2)ccc1OCCCN1CCCCCC1 [Example 14, 2-[4-(3-Azepan-1-yl-propoxy)-3-methoxy-phenyl]-7-methyl-imidazo[1,2-a]pyridine]	7.47
Cc1cc(-c2cn3ccccc3n2)ccc1OCCCN1CCCCC1 [Example 12, 2-(4-Piperidinopropoxy-3-methylphenyl)imidazo[1,2-a]pyridine]	7.68
Cc1cccn2cc(-c3ccc(OCCCN4CCCCC4)cc3)nc12 [Example 54, 2-(4-Piperidinopropoxyphenyl)-8-methylimidazo[1,2-a]pyridine]	9.00
CC1CCn2cc(-c3ccc(CCCCN4CCCCC4)cc3)nc2C1 (stereo not drawn) [Example 41, 7-Methyl-2-[4-(4-piperidin-1-yl-butyl)-phenyl]-5,6,7,8-tetrahydro-imidazo[1,2-a]pyridine]	7.57
Cc1ccn2cc(-c3ccc(OCCCN4CCCC4)cc3)nc2c1 [Example 18, 2-(4-Pyrrolidinopropoxyphenyl)-7-methylimidazo[1,2-a]pyridine]	8.70
Cc1cccn2cc(-c3ccc(NC(=O)CCN4CCCCC4)cc3)nc12 [Example 28, 2-[4-[3-(Piperidinyl)]propanamidophenyl]-8-methylimidazo[1,2-a]pyridine]	6.80
Cc1cccn2cc(-c3ccc(OCCCNC4CCN(Cc5ccccc5)CC4)cc3)nc12 [Example 44, 2-[4-[N-[(1-Benzylpiperidino)amino]propoxy]phenyl]-8-methylimidazo[1,2-a]pyridine]	6.82
CCN(CCOc1ccc(-c2cn3ccccc3n2)cc1)c1ccccc1 [Example 10, 2-(4-(N-Ethyl)anilinoethoxyphenyl)imidazo[1,2-a]pyridine]	6.21
Cc1ccn2cc(-c3ccc(OCCCN4CCCCC4)cc3F)nc2c1 [Example 20, 2-(4-Piperidinopropoxy-2-fluorophenyl)-7-methylimidazo[1,2-a]pyridine]	8.00
Cc1ccn2cc(-c3ccc(OCCCN4CCCCCC4)cc3F)nc2c1 [Example 21]	7.82
Cc1cc(-c2cn3cccc(C)c3n2)ccc1OCCCN1CCCCC1 [Example 9, 2-(4-Piperidinopropoxy-3-methylphenyl)-8-methylimidazo[1,2-a]pyridine]	7.49
Cc1ccn2cc(-c3ccc(OCCCNCc4ccc(F)cc4)cc3)nc2c1 [Example 25, 2-(4-(4-Fluorobenzyl)aminopropoxyphenyl)-7-methylimidazo[1,2-a]pyridine]	5.82
Cc1ccn2cc(-c3ccc(OCCCN4CCCCCC4)cc3C)nc2c1 [Example 24]	9.30
CCCN(CCC)CC(O)COc1ccc(-c2cn3cccc(C)c3n2)cc1 (stereo not drawn) [Example 47, 2-(4-Dipropylamino(2-hydroxy)propoxyphenyl)-8-methylimidazo[1,2-a]pyridine]	6.30
Cc1cccn2cc(-c3ccc(OCCCNCc4ccccc4)cc3)nc12 [Example 43, 2-(4-Benzylaminopropoxyphenyl)-8-methylimidazo[1,2-a]pyridine]	6.00
Cc1ccn2cc(-c3ccc(C#CCCN4CCCCCC4)cc3)nc2c1 [Example 35]	7.30
